Laboratory results as given in patent publication US20240082342A1, “PEPTIDE THERAPEUTICS FOR INCREASING LUNG CELL VIABILITY” (BOARD OF REGENTS, THE UNIVERSITY OF TEXAS SYSTEM, priority 2018, published 2024).
“Also recorded” adds a separate entry of the source.

Key:
[1] = test system: ATII cells and BALF of IL-17A treated mice; assay: IL-17A-induced lung injury in mice; format: in vivo, mouse; conditions: for A2EC p53, PAI-1 and apoptosis: WT mice exposed to IL-17A
Protocol: IL-17A is induced in passive tobacco smoke (PTS) exposed lung injury. […] Further, IL-17A induced ^p15Sp53 was inhibited following treatment of mice CSP7 when compared with those treated with saline and control peptide. To further test whether IL-17A induced ^p15Sp53 alters PAI-1 expression and ATII apoptosis, ATII cells of IL-17A treated mice for PAI-1 and apoptotic markers were analyzed. IL-17A induced the expression of PAI-1 and cl.Cas-3, and inhibited Sirt-1 expression in ATII cells. […] In addition, CSP7 treatment found to inhibit serine phosphorylation of p53 by neutralizing elevated IL-17A due to PTS exposure.
To test the importance of miR-34a mediated deacetylation of p53 IL-17A or PTS induced lung injury, miR34a conditional knockout mice were treated with tamoxifen. miR34a conditional knockout mice treated with IL-17A (3 μg/mice) was administered with CSP7 and CP a day later. ATII cells isolated from these mice were screened for PAI-1, Sirt-1 and apoptotic markers. […] Further, CSP7 treatment had little effect in miR-34a^cKo mice since these mice resist IL-17A or PTS injury.

WT mice with CS-LI = assay: Chronic CS/TSE lung injury in WT mice treated by nebulization or IP injection; format: in vivo, mouse; conditions: for lung volume (μCT): 20 weeks CS
Protocol: Pulmonary function tests were performed immediately before CT imaging and before mice were killed, as previously described (DeCologne N et al., Eur Respir J. 35:176-85, 2010). Briefly, mice were anesthetized with a ketamine/xylazine mixture. Anesthetized mice were intubated by inserting a sterile, 20-gauge intravenous cannula through the vocal cords into the trachea. Elastance, compliance, and total lung resistance were then measured (SCIREQ, Tempe, AZ). The “snapshot perturbation method” was used to study lung function in the CBB injury model. This method measures total lung resistance, compliance, and elastance of the entire respiratory system. Increased total lung resistance in the CBB model may reflect lung contraction associated with pleural rind formation with concurrent distortion of the airways. The flexiVent was set to a tidal volume of […] at a frequency of 150 breaths/min against 2-3 cm H2O positive end-expiratory pressure, according to manufacturer's specifications. The mice were maintained under anesthesia using isofluorane throughout the pulmonary function testing.
After ketamine/xylazine injection, mice were anesthetized further using an isoflurane/02 mixture to ensure that mice remained deeply anesthetized and to minimize spontaneous breaths. The Explore Locus Micro-CT Scanner (General Electric, GE Healthcare, Wauwatosa, WI) was used for CT imaging. CT scans were performed during full inspiration and at a resolution of […]. Lung volumes were calculated from lung renditions collected at full inspiration. Microview software was used to analyze lung volumes and render three-dimensional images (Tucker T A et al., Am J Respir Cell Mol Biol. 50:316-27, 2014).
Wild type (WT) mice of the C57BL/6J strain (n=10/group) were kept in ambient air or were TSE for 4 hour/day, 5 days a week as described. […]
Micro-computed Tomography (pCT) scanning and measurements of lung volume and pulmonary function. […] Lung volumes were calculated from lung renditions collected at full inspiration using Microview software. […]

PP2A [2] = assay: PP2A activity assay in AECs and lung tissues from COPD lungs; format: cell-based, human
Protocol: (§1) PP2A Activity Determination and PP2A Inhibitors PP2A activity was determined using the Millipore PP2A activity assay (17-313; Millipore) (Nath S, et al., Am J Respir Cell Mol Biol. 59:695-705, 2018 December).
(§2) Determination of protein phosphatase 2A (PP2A) activity. PP2A activity was determined in isolated AECs and lung homogenates using the PP2A activity assay kit (Millipore) (Nath et al, Am J Respir Cell Mol Biol 59:695-705, 2018. doi: 10.1165/rcmb.2018-01730C.)

PP2A [3] = biological target: T1, PP2A (Mus musculus, UniProt P63330); assay: PP2A activity assay in lung homogenates of CS exposed WT mice; format: in vivo; conditions: WT mice with CS-LI, Neb or IP, 4 weeks
T1 construct: from tissue; host or cells: lung homogenates of WT C57BL/6J mice
T1 sequence (P63330 whole entry): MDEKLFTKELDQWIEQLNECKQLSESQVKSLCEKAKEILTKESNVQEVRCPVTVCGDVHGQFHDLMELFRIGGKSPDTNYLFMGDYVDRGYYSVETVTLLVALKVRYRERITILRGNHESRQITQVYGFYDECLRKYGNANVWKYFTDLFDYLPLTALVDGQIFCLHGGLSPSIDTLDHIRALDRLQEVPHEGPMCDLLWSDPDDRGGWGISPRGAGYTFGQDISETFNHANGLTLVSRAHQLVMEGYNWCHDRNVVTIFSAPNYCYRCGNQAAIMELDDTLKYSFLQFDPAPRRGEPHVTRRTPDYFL
Protocol: as §1, §2

| Substance | A2EC p53, PAI-1 and apoptosis [1] | lung volume (μCT) (WT mice with CS-LI) | PP2A activity (PP2A [2]; AECs from COPD lungs, 48 h) | PP2A activity (PP2A [2]; COPD lung tissues ex vivo, 10 μM, 72 h) | PP2A activity / signaling (PP2A [3]) | lung volume, compliance, elastance and resistance (WT mice with CS-LI; IP or Neb, 20 weeks TSE/CS) | IL-17A induced serine phosphorylation of p53 (p15Sp53) in ATII cells ([1]; IL-17A treated mice, vs saline and control peptide) | effect in miR-34a^cKO mice ([1]; miR34a conditional knockout mice treated with IL-17A) | BALF myeloperoxidase (MPO) activity ([1]; mice with IL-17A or PTS (10 weeks) injury) |
| --- | --- | --- | --- | --- | --- | --- | --- | --- | --- |
| DGIWKASFTTFTVTKYWFYR (listed as Homo sapiens) [CSP, 20 residue caveolin-1 scaffolding domain peptide] | reduced A2EC p53, PAI-1 and apoptosis in vivo | – | – | – | – | – | – | – | – |
| WGIDKAFFTTSTVTYKWFRY [CP, scrambled control peptide with the same amino acid composition as CSP, reference compound] | – | persistently high lung volumes | failed to increase the PP2A activity | minimal effect | still showed loss of PP2A activity | – | – | – | – |
| FTTFTVT (listed as Homo sapiens) [CSP7, heptapeptide fragment of the caveolin-1 scaffolding domain peptide CSP] | reduced A2EC p53, PAI-1 and apoptosis in vivo | significantly improved | increased activity of PP2AC; also recorded: significantly improved | – | reversed by CSP7; also recorded: improved PP2A activity | reduced lung volume, compliance, elastance and resistance; also recorded: trend of reversal; also recorded: significantly improved | inhibited | little effect | significantly reduced the MPO activity |
